Assay results taken from the NIST ThermoML archive (doi:10.1021/je500696p).

Legend:
[1] = xn = mol fraction of the nth substance listed; details: 100 kPa, Liquid, Vibrating tube method
[2] = excess molar enthalpy (molar enthalpy of mixing); xn = mol fraction of the nth substance listed; details: 100 kPa, Liquid, Calvet calorimetry

CCCC[N+](C)(C)C.O=S(=O)([N-]S(=O)(=O)C(F)(F)F)C(F)(F)F [butyltrimethylammonium bis(trifluoromethylsulfonyl)imide] + CCCO
Details	excess molar enthalpy [kJ/mol]	mass density [kg/m3]
[1], 293.15 K, x2 = 0	–	1397.1
[1], 293.15 K, x2 = 0.1273	–	1375
[1], 293.15 K, x2 = 0.2596	–	1346.9
[1], 293.15 K, x2 = 0.3787	–	1315
[1], 293.15 K, x2 = 0.4996	–	1273.9
[1], 293.15 K, x2 = 0.6368	–	1210.1
[1], 293.15 K, x2 = 0.7624	–	1126
[1], 293.15 K, x2 = 0.8787	–	1008.7
[1], 293.15 K, x2 = 0.9498	–	903.9
[1], 293.15 K, x2 = 0.9799	–	847.3
[1], 295.15 K, x2 = 0	–	1395.3
[1], 295.15 K, x2 = 0.1273	–	1373.2
[1], 295.15 K, x2 = 0.2596	–	1345.1
[1], 295.15 K, x2 = 0.3787	–	1313.2
[1], 295.15 K, x2 = 0.4996	–	1272.1
[1], 295.15 K, x2 = 0.6368	–	1208.3
[1], 295.15 K, x2 = 0.7624	–	1124.2
[1], 295.15 K, x2 = 0.8787	–	1006.9
[1], 295.15 K, x2 = 0.9498	–	902.2
[1], 295.15 K, x2 = 0.9799	–	845.7
[1], 298.15 K, x2 = 0	–	1392.7
[1], 298.15 K, x2 = 0.1273	–	1370.6
[1], 298.15 K, x2 = 0.2596	–	1342.4
[1], 298.15 K, x2 = 0.3787	–	1310.6
[1], 298.15 K, x2 = 0.4996	–	1269.4
[1], 298.15 K, x2 = 0.6368	–	1205.6
[1], 298.15 K, x2 = 0.7624	–	1121.4
[1], 298.15 K, x2 = 0.8787	–	1004.3
[1], 298.15 K, x2 = 0.9498	–	899.7
[1], 298.15 K, x2 = 0.9799	–	843.2
[1], 303.15 K, x2 = 0	–	1388.3
[1], 303.15 K, x2 = 0.1273	–	1366.2
[1], 303.15 K, x2 = 0.2596	–	1338
[1], 303.15 K, x2 = 0.3787	–	1306.1
[1], 303.15 K, x2 = 0.4996	–	1264.9
[1], 303.15 K, x2 = 0.6368	–	1201.1
[1], 303.15 K, x2 = 0.7624	–	1117
[1], 303.15 K, x2 = 0.8787	–	999.9
[1], 303.15 K, x2 = 0.9498	–	895.5
[1], 303.15 K, x2 = 0.9799	–	839.1
[1], 308.15 K, x2 = 0	–	1384
[1], 308.15 K, x2 = 0.1273	–	1361.8
[1], 308.15 K, x2 = 0.2596	–	1333.5
[1], 308.15 K, x2 = 0.3787	–	1301.6
[1], 308.15 K, x2 = 0.4996	–	1260.4
[1], 308.15 K, x2 = 0.6368	–	1196.5
[1], 308.15 K, x2 = 0.7624	–	1112.5
[1], 308.15 K, x2 = 0.8787	–	995.5
[1], 308.15 K, x2 = 0.9498	–	891.2
[1], 308.15 K, x2 = 0.9799	–	835
[1], 313.15 K, x2 = 0	–	1379.6
[1], 313.15 K, x2 = 0.1273	–	1357.4
[1], 313.15 K, x2 = 0.2596	–	1329.1
[1], 313.15 K, x2 = 0.3787	–	1297.2
[1], 313.15 K, x2 = 0.4996	–	1255.9
[1], 313.15 K, x2 = 0.6368	–	1192
[1], 313.15 K, x2 = 0.7624	–	1107.9
[1], 313.15 K, x2 = 0.8787	–	991.1
[1], 313.15 K, x2 = 0.9498	–	887
[1], 313.15 K, x2 = 0.9799	–	830.8
[1], 318.15 K, x2 = 0	–	1375.2
[1], 318.15 K, x2 = 0.1273	–	1353
[1], 318.15 K, x2 = 0.2596	–	1324.7
[1], 318.15 K, x2 = 0.3787	–	1292.7
[1], 318.15 K, x2 = 0.4996	–	1251.4
[1], 318.15 K, x2 = 0.6368	–	1187.4
[1], 318.15 K, x2 = 0.7624	–	1103.4
[1], 318.15 K, x2 = 0.8787	–	986.7
[1], 318.15 K, x2 = 0.9498	–	882.6
[1], 318.15 K, x2 = 0.9799	–	826.6
[1], 323.15 K, x2 = 0	–	1370.9
[1], 323.15 K, x2 = 0.1273	–	1348.6
[1], 323.15 K, x2 = 0.2596	–	1320.3
[1], 323.15 K, x2 = 0.3787	–	1288.2
[1], 323.15 K, x2 = 0.4996	–	1246.9
[1], 323.15 K, x2 = 0.6368	–	1182.9
[1], 323.15 K, x2 = 0.7624	–	1098.8
[1], 323.15 K, x2 = 0.8787	–	982.2
[1], 323.15 K, x2 = 0.9498	–	878.3
[1], 323.15 K, x2 = 0.9799	–	822.4
[1], 328.15 K, x2 = 0	–	1366.6
[1], 328.15 K, x2 = 0.1273	–	1344.3
[1], 328.15 K, x2 = 0.2596	–	1315.9
[1], 328.15 K, x2 = 0.3787	–	1283.8
[1], 328.15 K, x2 = 0.4996	–	1242.4
[1], 328.15 K, x2 = 0.6368	–	1178.3
[1], 328.15 K, x2 = 0.7624	–	1094.3
[1], 328.15 K, x2 = 0.8787	–	977.7
[1], 328.15 K, x2 = 0.9498	–	873.9
[1], 328.15 K, x2 = 0.9799	–	818
[1], 333.15 K, x2 = 0	–	1362.3
[1], 333.15 K, x2 = 0.1273	–	1339.9
[1], 333.15 K, x2 = 0.2596	–	1311.5
[1], 333.15 K, x2 = 0.3787	–	1279.4
[1], 333.15 K, x2 = 0.4996	–	1237.9
[1], 333.15 K, x2 = 0.6368	–	1173.8
[1], 333.15 K, x2 = 0.7624	–	1089.7
[1], 333.15 K, x2 = 0.8787	–	973.1
[1], 333.15 K, x2 = 0.9498	–	869.5
[1], 333.15 K, x2 = 0.9799	–	813.7
[2], 308.15 K, x2 = 0.1224	0.935	–
[2], 308.15 K, x2 = 0.2622	1.83	–
[2], 308.15 K, x2 = 0.2665	1.85	–
[2], 308.15 K, x2 = 0.374	2.33	–
[2], 308.15 K, x2 = 0.4927	2.6	–
[2], 308.15 K, x2 = 0.5007	2.61	–
[2], 308.15 K, x2 = 0.5108	2.62	–
[2], 308.15 K, x2 = 0.5118	2.64	–
[2], 308.15 K, x2 = 0.6191	2.53	–
[2], 308.15 K, x2 = 0.744	2.23	–
[2], 308.15 K, x2 = 0.7466	2.23	–
[2], 308.15 K, x2 = 0.7505	2.18	–
[2], 308.15 K, x2 = 0.8709	1.48	–
[2], 313.15 K, x2 = 0.113	0.781	–
[2], 313.15 K, x2 = 0.2393	1.56	–
[2], 313.15 K, x2 = 0.2549	1.61	–
[2], 313.15 K, x2 = 0.3933	2.17	–
[2], 313.15 K, x2 = 0.4936	2.38	–
[2], 313.15 K, x2 = 0.4959	2.37	–
[2], 313.15 K, x2 = 0.499	2.38	–
[2], 313.15 K, x2 = 0.6245	2.36	–
[2], 313.15 K, x2 = 0.7406	2.12	–
[2], 313.15 K, x2 = 0.8666	1.54	–
[2], 323.15 K, x2 = 0.1187	0.773	–
[2], 323.15 K, x2 = 0.2569	1.7	–
[2], 323.15 K, x2 = 0.2694	1.76	–
[2], 323.15 K, x2 = 0.3969	2.25	–
[2], 323.15 K, x2 = 0.527	2.51	–
[2], 323.15 K, x2 = 0.5431	2.56	–
[2], 323.15 K, x2 = 0.6214	2.5	–
[2], 323.15 K, x2 = 0.7499	2.29	–
[2], 323.15 K, x2 = 0.8707	1.73	–
